Values joined by “and” are separate entries in the source; they are usually repeats but may differ in a detail not shown here. Equal values may be shown once.
What was measured:
E. coli DNA gyrase = E. coli DNA gyrase (Escherichia coli, UniProt P0AES4+P0AES6); assay: biochemical; details: supercoiling assay
E. coli [ATCC25922] = assay: Urinary tract infection (UTI) rat model; format: in vivo; details: for MEAN ± SD (Log10 CFU/g kidneys) / Mean Log10 CFU/g kidney reduction (wrt 4 h PI control: 6.03 Log10 CFU/g kidneys) / MEAN ± SD (Log 10 CFU/ml Bladder) / Mean Log10 CFU/ml Bladder reduction (wrt 4 h PI control: 6.49 CFU/ml Bladder) / Log10 CFU/g (Left Kidney) / Log10 CFU/g (Right Kidney) / Log 10 CFU/ml Bladder: i.v., 1 h infusion, rat UTI, 24 h post infection; for Log10 CFU/g (Left Kidney) / Log10 CFU/g (Right Kidney) / Log 10 CFU/ml Bladder: individual animals
Method: The purpose of this study is to assess the efficacy of Example 15 against E. coli [ATCC25922] following single dose intravenous infusion doses of 3, 10 and 30 mg/kg in a Urinary Tract Infection Rat Model
Prior to the start of the infection process all animals were divided into different groups. All grouped cages of animals were carried to a procedure room, close to a biological safety cabinet. All infections were conducted in a biological safety cabinet, with appropriate personnel protection. Animals were anaesthetized by intraperitoneal injection of ketamine & xylazine (60+10 mg/kg i.p.) cocktail. Once the animals were in a sufficiently deep plane of anaesthesia as monitored by pedal reflex, the abdominal wall of each rat was shaved with electric clippers and the skin was cleansed with 10% povidine iodine. After a 1.5 to 2 cm lower abdominal wall incision, the abdominal wall muscles were separated with blunt dissection. […] After the replacement of the bladder to its original location, the abdominal muscles were approximated using suture and the skin was closed. The wounds were cleansed using 10% povidine iodine.
The IV formulation vehicle used was 10% of L-ascorbic acid in fresh MilliQ water (w/v) with pH adjusted to 4.0 with 1N Sodium hydroxide solution (w/v), and the dose volume was 10 mL/kg. Meropenem was prepared in MilliQ water and the pH of solution was adjusted to 4.5 using HCl. Four hours post infection, animals were dosed intravenously, as single doses (for test compounds), as a constant rate infusion, under Ketamine 60 mg/kg IP+Xylazine 10 mg/kg IP anesthesia, at a dose volume of 10 ml/kg, at the rate of 0.03 ml/min. The dose levels of the test compounds were 3, 10 and 30 mg/kg. Meropenem was administered as a single bolus dose at a dose volume of 5 ml/kg. All the animals were sacrificed at 24 h post infection, as specified in experimental design, by an overdose of CO2 in an appropriate exposure chamber. The group 1 animals were sacrificed at 4 h post infection.
The euthanized animals were dipped into 70% ethanol for surface decontamination. The organs were removed aseptically; the bladder was cut away near the urethra, and the kidneys were removed by blunt dissection to avoid bleeding. The bladder and each kidney separately were be homogenized in PBS. The CFU per milliliter homogenate of bladder, & kidney were determined after 18 to 24 h of incubation at 37° C.

[1] = In vivo pharmacokinetic studies in rats, 1 hr intravenous infusion; details: for AUC(0-t) / AUC(0-inf) / Cmax / Tmax / clearance / half-life / Vd: male, Sprague-Dawley, rat, iv; for Vd: male SD rats, 1 h IV infusion

Sequence of E. coli DNA gyrase (P0AES4 whole entry, the tested form may be a part, one chain of several): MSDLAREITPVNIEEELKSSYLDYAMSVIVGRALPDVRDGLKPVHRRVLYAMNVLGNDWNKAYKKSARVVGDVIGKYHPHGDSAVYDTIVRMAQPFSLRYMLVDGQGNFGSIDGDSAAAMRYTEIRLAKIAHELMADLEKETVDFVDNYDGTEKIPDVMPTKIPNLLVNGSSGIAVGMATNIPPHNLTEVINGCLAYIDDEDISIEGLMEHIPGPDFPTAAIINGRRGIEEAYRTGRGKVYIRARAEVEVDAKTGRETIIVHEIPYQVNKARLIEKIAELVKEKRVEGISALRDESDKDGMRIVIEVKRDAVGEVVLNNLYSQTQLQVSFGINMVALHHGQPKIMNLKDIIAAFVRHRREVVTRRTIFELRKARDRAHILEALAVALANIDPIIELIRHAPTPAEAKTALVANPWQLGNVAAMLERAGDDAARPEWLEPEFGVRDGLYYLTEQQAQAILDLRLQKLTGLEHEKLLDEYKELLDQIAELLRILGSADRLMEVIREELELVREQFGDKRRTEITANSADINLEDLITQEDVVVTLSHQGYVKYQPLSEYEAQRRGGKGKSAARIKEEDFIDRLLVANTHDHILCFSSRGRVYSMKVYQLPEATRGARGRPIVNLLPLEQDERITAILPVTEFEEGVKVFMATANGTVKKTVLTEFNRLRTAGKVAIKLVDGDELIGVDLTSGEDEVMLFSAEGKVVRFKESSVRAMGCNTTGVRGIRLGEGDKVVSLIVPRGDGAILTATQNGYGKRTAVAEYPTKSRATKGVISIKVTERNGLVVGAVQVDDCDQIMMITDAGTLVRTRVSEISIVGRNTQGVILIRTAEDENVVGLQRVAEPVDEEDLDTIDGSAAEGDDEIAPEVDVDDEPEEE

Q: Which IC50 (E. coli DNA gyrase) does the source give for Cn1c(=O)ccc2ccc(F)c(CCNC[C@H]3CN(c4cnc5c(n4)NC(=O)CO5)C(=O)O3)c21 [Example 15, (S)-6-(5-(((2-(7-fluoro-1-methyl-2-oxo-1,2-dihydroquinolin-8-yl)ethyl)amino)methyl)-2-oxooxazolidin-3-yl)-2H-pyrazino[2,3-b][1,4]oxazin-3(4H)-one] here?
A: 4.6 nM

Q: And the “MEAN ± SD (Log10 CFU/g kidneys)” value (E. coli [ATCC25922]; 3 mg/kg)?
A: 7.13 ± 0.62 Log10 CFU/g kidneys

Q: What about the “Mean Log10 CFU/g kidney reduction (wrt 4 h PI control: 6.03 Log10 CFU/g kidneys)” value (“Mean Log10 CFU/g kidney reduction” below) (E. coli [ATCC25922]; 3 mg/kg) of the same compound?
A: −1.1 Log10 CFU/g kidneys

Q: And the “MEAN ± SD (Log 10 CFU/ml Bladder)” value (E. coli [ATCC25922]; 3 mg/kg)?
A: 7.01 ± 0.23 Log 10 CFU/ml

Q: What about the “Mean Log10 CFU/ml Bladder reduction (wrt 4 h PI control: 6.49 CFU/ml Bladder)” value (shortened to “Mean Log10 CFU/ml Bladder reduction”) (E. coli [ATCC25922]; 3 mg/kg) of the same compound?
A: −0.52 Log10 CFU/ml

Q: What about the “MEAN ± SD (Log10 CFU/g kidneys)” value (E. coli [ATCC25922]; 10 mg/kg) of the same compound?
A: 5.82 ± 0.94 Log10 CFU/g kidneys

Q: What about the “Mean Log10 CFU/g kidney reduction” value (E. coli [ATCC25922]; 10 mg/kg) of the same compound?
A: 0.21 Log10 CFU/g kidneys

Q: What about the “MEAN ± SD (Log 10 CFU/ml Bladder)” value (E. coli [ATCC25922]; 10 mg/kg) of the same compound?
A: 5.85 ± 0.27 Log 10 CFU/ml

Q: What about the “Mean Log10 CFU/ml Bladder reduction” value (E. coli [ATCC25922]; 10 mg/kg) of the same compound?
A: 0.64 Log10 CFU/ml

Q: And the “MEAN ± SD (Log10 CFU/g kidneys)” value (E. coli [ATCC25922]; 30 mg/kg)?
A: 4.46 ± 0.52 Log10 CFU/g kidneys

Q: What about the “Mean Log10 CFU/g kidney reduction” value (E. coli [ATCC25922]; 30 mg/kg) of the same compound?
A: 1.57 Log10 CFU/g kidneys

Q: And the “MEAN ± SD (Log 10 CFU/ml Bladder)” value (E. coli [ATCC25922]; 30 mg/kg)?
A: 4.80 ± 0.17 Log 10 CFU/ml

Q: What about the “Mean Log10 CFU/ml Bladder reduction” value (E. coli [ATCC25922]; 30 mg/kg) of the same compound?
A: 1.69 Log10 CFU/ml

Q: And the “Log10 CFU/g (Left Kidney)” value (E. coli [ATCC25922]; 3 mg/kg)?
A: 6.81 Log10 CFU/g and 6.44 Log10 CFU/g and 6.48 Log10 CFU/g

Q: And the “Log10 CFU/g (Right Kidney)” value (E. coli [ATCC25922]; 3 mg/kg)?
A: 7.51 Log10 CFU/g and 7.68 Log10 CFU/g and 7.86 Log10 CFU/g

Q: What about the “Log 10 CFU/ml Bladder” value (E. coli [ATCC25922]; 3 mg/kg) of the same compound?
A: 5.54 Log 10 CFU/ml and 6.79 Log 10 CFU/ml and 7.00 Log 10 CFU/ml

Q: And the “Log10 CFU/g (Left Kidney)” value (E. coli [ATCC25922]; 10 mg/kg)?
A: 4.69 Log10 CFU/g and 5.68 Log10 CFU/g and 4.80 Log10 CFU/g

Q: And the “Log10 CFU/g (Right Kidney)” value (E. coli [ATCC25922]; 10 mg/kg)?
A: 6.66 Log10 CFU/g and 6.13 Log10 CFU/g and 6.97 Log10 CFU/g

Q: What about the “Log 10 CFU/ml Bladder” value (E. coli [ATCC25922]; 10 mg/kg) of the same compound?
A: 5.54 Log 10 CFU/ml and 5.97 Log 10 CFU/ml and 6.05 Log 10 CFU/ml

Q: And the “Log10 CFU/g (Left Kidney)” value (E. coli [ATCC25922]; 30 mg/kg)?
A: 4.98 Log10 CFU/g and 3.84 Log10 CFU/g and 4.12 Log10 CFU/g

Q: What about the “Log10 CFU/g (Right Kidney)” value (E. coli [ATCC25922]; 30 mg/kg) of the same compound?
A: 4.66 Log10 CFU/g and 4.05 Log10 CFU/g and 5.11 Log10 CFU/g

Q: And the “Log 10 CFU/ml Bladder” value (E. coli [ATCC25922]; 30 mg/kg)?
A: 4.61 Log 10 CFU/ml and 4.91 Log 10 CFU/ml and 4.90 Log 10 CFU/ml

Q: What about the “efficacy compared to the 4 h PI control (in words)” value (E. coli [ATCC25922]; rat UTI model, 3 mg/kg) of the same compound?
A: bacteriostatic

Q: And the “efficacy with respect to 4 h PI control (in words)” value (E. coli [ATCC25922]; rat UTI model, 10 and 30 mg/kg)?
A: significant dose dependent

Q: What about the “efficacy versus standard drug (in words)” value (E. coli [ATCC25922]; rat UTI model, similar dose (30 mg/kg)) of the same compound?
A: comparable to standard drug meropenem

Q: And the “clearance (in words)” value ([1]; SD rats, 1 hr IV infusion)?
A: moderate

Q: And the “half life (in words)” value ([1]; SD rats, 1 hr IV infusion)?
A: short

Q: What about the “volume of distribution (in words)” value ([1]; SD rats, 1 hr IV infusion) of the same compound?
A: low

Q: And the “AUC and Cmax versus dose (in words)” value ([1]; SD rats, IV infusion at 5, 10, 30 & 100 mg/kg)?
A: Dose proportional increase

Q: And the AUC(0-t) ([1]; in vivo)?
A: 104000 ± 7300 ng·h/mL

Q: What about the AUC(0-inf) ([1]; in vivo, 30 mg/kg) of the same compound?
A: 14700 ± 200 ng·h/mL

Q: What about the AUC(0-t) ([1]; in vivo, 30 mg/kg) of the same compound?
A: 14700 ± 200 ng·h/mL

Q: What about the Cmax ([1]; in vivo, 30 mg/kg) of the same compound?
A: 15200 ± 2200 ng/mL

Q: What about the Tmax ([1]; in vivo, 30 mg/kg) of the same compound?
A: 1 h

Q: And the clearance ([1]; in vivo, 30 mg/kg)?
A: 34 mL/min/kg

Q: What about the half-life ([1]; in vivo, 30 mg/kg) of the same compound?
A: 57.6 ± 1.2 min

Q: What about the Vd ([1]; in vivo, 30 mg/kg, Vd) of the same compound?
A: 2.83 ± 0.09 L/kg

Q: And the Vd ([1]; in vivo, 30 mg/kg, Vss, 30 mg/kg)?
A: 0.84 ± 0.06 L/kg

Q: What about the AUC(0-inf) ([1]; in vivo, 100 mg/kg) of the same compound?
A: 73700 ± 15300 ng·h/mL

Q: What about the AUC(0-t) ([1]; in vivo, 100 mg/kg) of the same compound?
A: 73700 ± 15300 ng·h/mL

Q: And the Cmax ([1]; in vivo, 100 mg/kg)?
A: 62600 ± 6700 ng/mL

Q: What about the Tmax ([1]; in vivo, 100 mg/kg) of the same compound?
A: 1 h

Q: And the clearance ([1]; in vivo, 100 mg/kg)?
A: 23.3 mL/min/kg

Q: And the half-life ([1]; in vivo, 100 mg/kg)?
A: 296 ± 30 min

Q: What about the Vd ([1]; in vivo, 100 mg/kg, Vd) of the same compound?
A: 9.86 ± 1.68 L/kg

Q: What about the Vd ([1]; in vivo, 100 mg/kg, Vss, 100 mg/kg) of the same compound?
A: 0.9 ± 0.05 L/kg

Q: And the AUC(0-inf) ([1]; in vivo, 150 mg/kg)?
A: 104000 ± 7300 ng·h/mL

Q: And the Cmax ([1]; in vivo, 150 mg/kg)?
A: 101000 ± 146000 ng/mL

Q: What about the Tmax ([1]; in vivo, 150 mg/kg) of the same compound?
A: 1 h

Q: What about the clearance ([1]; in vivo, 150 mg/kg) of the same compound?
A: 24.2 mL/min/kg

Q: What about the half-life ([1]; in vivo, 150 mg/kg) of the same compound?
A: 370 ± 25.2 min

Q: What about the Vd ([1]; in vivo, 150 mg/kg, Vd) of the same compound?
A: 12.9 ± 1 L/kg

Q: And the Vd ([1]; in vivo, 150 mg/kg, Vss, 150 mg/kg)?
A: 0.86 ± 0.04 L/kg

Q: What about the AUC(0-inf) ([1]; plasma, 5 mg/kg) of the same compound?
A: 1700 ± 50 ng·h/mL

Q: And the AUC(0-t) ([1]; plasma, 5 mg/kg)?
A: 1700 ± 50 ng·h/mL

Q: And the Cmax ([1]; plasma, 5 mg/kg)?
A: 2400 ± 60 ng/mL

Q: And the Tmax ([1]; plasma, 5 mg/kg)?
A: 0.77 ± 0.01 h

Q: And the clearance ([1]; plasma, 5 mg/kg)?
A: 48.7 mL/min/kg

Q: And the half-life ([1]; plasma, 5 mg/kg)?
A: 31.8 ± 1.8 min

Q: And the Vd ([1]; plasma, 5 mg/kg, Vd)?
A: 2.21 ± 0.012 L/kg

Q: And the Vd ([1]; plasma, 5 mg/kg, Vss, 5 mg/kg)?
A: 0.91 ± 0.05 L/kg

Source: patent US10912780B2, “Heterocyclic compounds useful as anti-bacterial agents and method for production thereof” (Bugworks Research, Inc., priority 2017, dated 2021)
